In PubChem BioAssay (NCI):
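Cultured in 96-well plates, cells were exposed to test compound for 48 hours across five concentrations. GI50 = concentration required for 50% inhibition of growth. TGI marks complete inhibition of growth.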

Columns and labels:
Test in all cases: NCI tumour cell line growth inhibition, 48 h
[1] = system: MDA-MB-231 breast
[2] = system: HOP-92 NSCLC
[3] = system: DU-145 prostate
[4] = system: CAKI-1 renal
[5] = system: UO-31 renal
[6] = system: SNB-75 CNS
[7] = system: SK-OV-3 ovarian
[8] = system: OVCAR-3 ovarian
[9] = system: SR leukemia
[10] = system: OVCAR-5 ovarian
[11] = system: MDA-MB-435
[12] = system: UACC-257 melanoma
[13] = system: SF-268 CNS
[14] = system: NCI-H23 lung
[15] = system: NCI/ADR-RES ovarian
[16] = system: SK-MEL-5 melanoma
[17] = system: OVCAR-4 ovarian
[18] = system: HS 578T breast
[19] = system: OVCAR-8 ovarian
[20] = system: KM12 colon
[21] = system: SF-539 CNS
[22] = system: SK-MEL-2 melanoma
[23] = system: SN12C renal
[24] = system: HL-60(TB) leukemia
[25] = system: SF-295 CNS
[26] = system: SK-MEL-28 melanoma
[27] = system: HCT-15 colon
[28] = system: ACHN renal
[29] = system: SW-620 colon
[30] = system: UACC-62 melanoma
[31] = system: SNB-19 CNS
[32] = system: MALME-3M melanoma
[33] = system: A498 renal
[34] = system: COLO 205 colon
[35] = system: NCI-H460 lung
[36] = system: TK-10 renal
[37] = system: NCI-H226 lung
[38] = system: 786-0 renal
[39] = system: M14 melanoma
[40] = system: HCC-2998 colon
[41] = system: BT-549 breast
[42] = system: EKVX NSCLC
[43] = system: RXF 393 renal
[44] = system: HCT-116 colon
[45] = system: T-47D breast
[46] = system: PC-3 prostate

How did the GI50 [1] turn out when `N=C(N)c1ccc(-c2ccc(-c3ccc(Cl)cc3Cl)o2)nc1` was run?
Its GI50 is 1640 nM.

And the TGI [1]?
The TGI was 3160 nM.

And the GI50 [2]?
Its GI50 is 1440 nM.

And the TGI [2]?
The TGI was 2900 nM.

And the GI50 [3]?
Its GI50 is 1780 nM.

What about the TGI [3] of the same compound?
Its TGI is 3210 nM.

And the GI50 [4]?
Its GI50 is 1520 nM.

And the TGI [4]?
The TGI was 2960 nM.

And the GI50 [5]?
Its GI50 is 1560 nM.

What about the TGI [5] of the same compound?
The TGI was 2920 nM.

What about the GI50 [6] of the same compound?
Its GI50 is 1460 nM.

What about the TGI [6] of the same compound?
The TGI was 2780 nM.

What about the GI50 [7] of the same compound?
Its GI50 is 1770 nM.

What about the TGI [7] of the same compound?
The TGI was 3520 nM.

And the GI50 [8]?
The GI50 was 1810 nM.

What about the TGI [8] of the same compound?
The TGI was 3230 nM.

What about the GI50 [9] of the same compound?
The GI50 was 311 nM.

And the TGI [9]?
The TGI was 1430 nM.

What about the GI50 [10] of the same compound?
The GI50 was 1640 nM.

What about the TGI [10] of the same compound?
Its TGI is 3050 nM.

And the GI50 [11]?
Its GI50 is 1720 nM.

What about the TGI [11] of the same compound?
The TGI was 3100 nM.

Which GI50 [12] does the source give for `NCCCNc1nc2ccccc2c2c(=O)c3cc(F)cc(F)c3sc12` here?
The GI50 was 1880 nM.

And the TGI [12]?
The TGI was 4180 nM.

What about the GI50 [1] of the same compound?
Its GI50 is 1490 nM.

And the TGI [1]?
The TGI was 3020 nM.

What about the GI50 [13] of the same compound?
Its GI50 is 1630 nM.

And the TGI [13]?
Its TGI is 3320 nM.

What about the GI50 [14] of the same compound?
Its GI50 is 1780 nM.

And the TGI [14]?
Its TGI is 3360 nM.

And the GI50 [15]?
Its GI50 is 1810 nM.

And the TGI [15]?
The TGI was 3690 nM.

And the GI50 [16]?
The GI50 was 1680 nM.

And the TGI [16]?
The TGI was 3090 nM.

And the GI50 [17]?
Its GI50 is 1750 nM.

What about the TGI [17] of the same compound?
Its TGI is 3610 nM.

What about the GI50 [18] of the same compound?
Its GI50 is 1470 nM.

And the TGI [18]?
Its TGI is 3090 nM.

What about the GI50 [19] of the same compound?
Its GI50 is 2100 nM.

What about the TGI [19] of the same compound?
The TGI was 5140 nM.

And the GI50 [2]?
Its GI50 is 1650 nM.

And the TGI [2]?
The TGI was 12600 nM.

And the GI50 [20]?
Its GI50 is 1740 nM.

What about the TGI [20] of the same compound?
Its TGI is 3260 nM.

And the GI50 [21]?
Its GI50 is 1770 nM.

What about the TGI [21] of the same compound?
Its TGI is 3240 nM.

And the GI50 [22]?
Its GI50 is 2670 nM.

And the TGI [22]?
Its TGI is 7040 nM.

What about the GI50 [23] of the same compound?
Its GI50 is 1680 nM.

What about the TGI [23] of the same compound?
The TGI was 3270 nM.

What about the GI50 [3] of the same compound?
Its GI50 is 1710 nM.

What about the TGI [3] of the same compound?
Its TGI is 3190 nM.

What about the GI50 [4] of the same compound?
Its GI50 is 1860 nM.

What about the TGI [4] of the same compound?
The TGI was 4180 nM.

And the GI50 [24]?
The GI50 was 2080 nM.

And the TGI [24]?
Its TGI is 4200 nM.

What about the GI50 [25] of the same compound?
The GI50 was 1990 nM.

What about the TGI [25] of the same compound?
The TGI was 4060 nM.

What about the GI50 [26] of the same compound?
The GI50 was 1860 nM.

What about the TGI [26] of the same compound?
Its TGI is 3390 nM.

And the GI50 [27]?
Its GI50 is 1600 nM.

What about the TGI [27] of the same compound?
Its TGI is 3140 nM.

And the GI50 [5]?
The GI50 was 1480 nM.

And the TGI [5]?
Its TGI is 2880 nM.

What about the GI50 [28] of the same compound?
Its GI50 is 1650 nM.

What about the TGI [28] of the same compound?
Its TGI is 3060 nM.

And the GI50 [29]?
Its GI50 is 1640 nM.

What about the TGI [29] of the same compound?
Its TGI is 3190 nM.

And the GI50 [30]?
The GI50 was 1810 nM.

And the TGI [30]?
The TGI was 3480 nM.

And the GI50 [31]?
The GI50 was 1700 nM.

What about the TGI [31] of the same compound?
Its TGI is 3230 nM.

And the GI50 [6]?
Its GI50 is 1360 nM.

What about the TGI [6] of the same compound?
Its TGI is 2700 nM.

And the GI50 [32]?
Its GI50 is 1620 nM.

And the TGI [32]?
The TGI was 3210 nM.

And the GI50 [33]?
Its GI50 is 1380 nM.

And the TGI [33]?
Its TGI is 2930 nM.

What about the GI50 [8] of the same compound?
Its GI50 is 1720 nM.

What about the TGI [8] of the same compound?
Its TGI is 3190 nM.

What about the GI50 [34] of the same compound?
The GI50 was 1920 nM.

And the TGI [34]?
The TGI was 4620 nM.

And the GI50 [35]?
The GI50 was 1580 nM.

What about the TGI [35] of the same compound?
Its TGI is 3140 nM.

What about the GI50 [36] of the same compound?
Its GI50 is 1690 nM.

What about the TGI [36] of the same compound?
The TGI was 3180 nM.

And the GI50 [37]?
The GI50 was 10900 nM.

And the TGI [37]?
The TGI was 29100 nM.

What about the GI50 [38] of the same compound?
Its GI50 is 1490 nM.

What about the TGI [38] of the same compound?
The TGI was 3120 nM.

And the GI50 [39]?
Its GI50 is 1790 nM.

And the TGI [39]?
Its TGI is 3300 nM.

And the GI50 [40]?
The GI50 was 1690 nM.

And the TGI [40]?
The TGI was 3360 nM.

What about the GI50 [41] of the same compound?
Its GI50 is 13000 nM.

What about the TGI [41] of the same compound?
Its TGI is 26800 nM.

What about the GI50 [42] of the same compound?
The GI50 was 1600 nM.

What about the TGI [42] of the same compound?
Its TGI is 3120 nM.

And the GI50 [43]?
The GI50 was 1420 nM.

What about the TGI [43] of the same compound?
Its TGI is 2970 nM.

What about the GI50 [44] of the same compound?
The GI50 was 1670 nM.

What about the TGI [44] of the same compound?
The TGI was 3280 nM.

And the GI50 [45]?
The GI50 was 16200 nM.

And the TGI [45]?
The TGI was 55400 nM.

And the GI50 [10]?
Its GI50 is 1600 nM.

And the TGI [10]?
Its TGI is 3030 nM.

What about the GI50 [46] of the same compound?
Its GI50 is 1670 nM.

And the TGI [46]?
The TGI was 3240 nM.

And the GI50 [11]?
Its GI50 is 1630 nM.

What about the TGI [11] of the same compound?
The TGI was 3020 nM.
